Experimental data: paper PMC10979003, “Development and crystal structures of a potent second-generation dual degrader of BCL-2 and BCL-xL” (Nature Communications, 2024)

Experiments:
Type in all cases: cell-based
[1] = molecular target: T1, BCL-xL (Homo sapiens, UniProt Q07817); assay: Immunoblot degradation of BCL-xL in Jurkat cells; settings: for DC50: 16 h treatment, immunoblot
T1 construct: endogenous in cells; host or cells: Jurkat (ATCC TIB-152)
Experimental: The data are presented as mean ± s.d. from three replicate cell cultures in a representative experiment for Jurkat cells. h Left, WH244 induces polyubiquitination of WT, K22R BCL-2 and to some extent K17R but not K17/22R BCL-2 in 293T cells. 293T cells were co-transfected as indicated with Flag-BCL−2 WT or mutants and HA-tagged ubiquitin (HA-Ub) plasmids. After 36 h, cells were pretreated with MG132 (10 µM) for 2 h and then treated with or without WH244 (1 μM) for 5 h. The Flag-tagged proteins were immunoprecipitated (IP) and immunoblotted with HA or Flag antibody. Right, The input blot for this assay. Data are a representative of two independent experiments. Source data are provided as Source Data file.
Cells were collected, washed once with ice-cold phosphate-buffered saline, pH 7.2 (PBS, cat. no. 20012027; Thermo Fisher Scientific) and lysed in RIPA lysis buffer (Cat. No. BP-115DG, Boston Bio Products, Ashland, MA, USA) supplemented with protease and phosphatase inhibitor cocktails (Cat. No. PPC1010, Sigma-Aldrich, St. Louis, MO, USA) through sonication. The samples were centrifuged at 15,000 × g for 5 min and the supernatants were transferred into a new tube. The protein concentration in the supernatants was determined using the Pierce BCA protein Assay kit (cat. no. 23225, Thermo Fisher Scientific). The protein concentration was normalized, and the samples were reduced in 4× Laemmli’s SDS-sample buffer (cat. no. BP-110R, Boston Bio Products) and denatured at 95 °C for 5 min. An equal amount of protein samples (20–40 μg per lane) were resolved using precast 4–20% Tris-glycine gels (Mini-PROTEAN TGX, cat. no. 456–1094, Bio-Rad), and resolved proteins were transferred onto 0.2-μm pore size polyvinylidene difluoride (PVDF) blotting membranes (cat. no. LC2002, Thermo Fisher Scientific) using mini trans-blot electrophoretic transfer cell (Bio-Rad). The membranes were blocked with non-fat dry milk (5% wt/vol) in 1×Tris- buffered saline-Tween-20 (TBST) for 1 h at room temperature, and were subsequently probed with primary antibodies at a pre-determined optimal concentration in non-fat dry milk (5% wt/vol in TBST) overnight at 4 °C. The membranes were washed three times (15 min each) in TBST and then incubated with horse radish peroxidase (HRP)-conjugated secondary antibodies for 1 h at room temperature. Following sufficient washing with TBST, the membranes were exposed with ECL Western Blotting Substrate (Bio-Rad), and the signal was detected using the ChemiDoc MP Imaging System (Bio-Rad) and quantified using the ImageJ (v1.53a) software from NIH. Antibodies were purchased from Cell Signaling Technologies (CST) and the dilutions are as follows: BCL-xL (Cat. No. 2762S, 1:1000) and BCL-2 (Cat. No. 2870S, 1:1000). β-actin antibody was purchased from MP Biomedicals (Cat. No. 8691001, 1:20,000).

[2] = molecular target: T2, HiBiT-BCL-xL (Homo sapiens, UniProt Q07817); assay: HiBiT degradation assay, HiBiT knock-in BCL-xL HeLa cells
T2 construct: endogenous in cells; host or cells: HeLa (ATCC CCL-2), CRISPR-Cas9 HiBiT knock-in clone
Experimental: (§1) The Alt-R CRISPR RNA (crRNA):Alt-R trans-activating crRNA (tracrRNA) duplexes for targeting BCL-xL or BCL-2 were prepared by mixing 0.5 nmol crRNA and 0.5 nmol tracrRNA in 25 μL of Nuclease-Free Duplex Buffer (Integrated DNA Technologies, IDT) by incubation at 95 °C for 5 min and cooling to RT. Single-stranded ultramer DNA oligonucleotides (ssODN) (IDT) were used as the homology directed repair (HDR) donor templates. The sequences of gRNAs and ssODN templates are listed in Supplementary Table 2. Ribonucleoprotein (RNP) complexes with recombinant Streptococcus pyogenes Cas9 protein (IDT) and crRNA:tracrRNA duplex were assembled by incubating 100 pmol of Cas9 and 120 pmol of gRNA for 10–20 min at room temperature. HeLa (2 × 10^5) cells were resuspended in 10 μL of Neon^TM transfection system buffer R from the Neon^TM transfection system 10 mL kit (Thermo Fisher), and the RNP complex along with 100 pmol ssODN template were electroporated into HeLa cells with the Neon^TM transfection system (Thermo Fisher). After electroporation, HeLa cells were transferred to a 12-well plate for culturing. Edited pooled cells were analyzed for HiBiT insertion by assaying for luminescence using Nano-Glo® HiBiT lytic detection system (Cat #N3040, Promega) in a Biotek’s Synergy Neo2 multimode plate reader (Biotek) 48–72 h after electroporation and single clones were selected by serial dilution.
(§2) HeLa HiBiT-BCL-xL and HeLa HiBiT-BCL-2 cells (2 × 10^4/well in 80 μL DMEM) were seeded into white 96-well tissue culture plates and incubated overnight at 37 °C, 5% CO2. For dose curve testing, the following day, serial diluted compounds were added into the medium and then plates were incubated at 37 °C, 5% CO2, for 6 h. For time course testing, in the following day, compounds with indicated concentrations were added into the medium at different time points. After treatment, the luminescence signals were measured using Nano-Glo® HiBiT lytic detection system (Cat #N3040, Promega) in a Biotek’s Synergy Neo2 multimode plate reader (Biotek).

[3] = molecular target: T3, HiBiT-BCL-2 (Homo sapiens, UniProt P10415); assay: HiBiT degradation assay, HiBiT knock-in BCL-2 HeLa cells; settings: for Time to degrade 50% of BCL-2: 100 nM compound
T3 construct: endogenous in cells; host or cells: HeLa (ATCC CCL-2), CRISPR-Cas9 HiBiT knock-in clone
Experimental: as §1, §2

T2 sequence (Q07817 whole entry): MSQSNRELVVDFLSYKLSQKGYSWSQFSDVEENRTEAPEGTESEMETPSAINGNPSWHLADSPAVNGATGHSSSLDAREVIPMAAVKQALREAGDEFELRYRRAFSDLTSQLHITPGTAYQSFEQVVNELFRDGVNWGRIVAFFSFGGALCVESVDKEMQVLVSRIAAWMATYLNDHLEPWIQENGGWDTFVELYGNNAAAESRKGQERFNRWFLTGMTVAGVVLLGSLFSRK
T1 sequence (Q07817 whole entry): as above
T3 sequence (P10415 whole entry): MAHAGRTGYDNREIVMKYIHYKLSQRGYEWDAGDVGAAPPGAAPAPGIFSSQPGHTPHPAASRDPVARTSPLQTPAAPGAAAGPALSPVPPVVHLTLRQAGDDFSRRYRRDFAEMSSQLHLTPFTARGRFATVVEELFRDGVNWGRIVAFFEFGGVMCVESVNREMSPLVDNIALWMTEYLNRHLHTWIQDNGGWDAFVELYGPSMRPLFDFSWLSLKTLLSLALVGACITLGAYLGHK

Row | Compound | DC50 ([1]; Jurkat cells) | Time to degrade 50% of BCL-xL ([2]; 10 nM compound) | Time to degrade 50% of BCL-xL ([2]; 100 nM compound) | Time to degrade 50% of BCL-2 [3] | Earliest time at which BCL-xL degradation is seen ([1]; 0.1 μM WH244, Jurkat cells) | Time to nearly complete degradation of BCL-xL ([1]; 0.1 μM WH244, Jurkat cells) | Time for BCL-xL level to recover to pretreatment level after removal of degrader ([1]; 0.1 μM WH244 for 16 h, then fresh medium, Jurkat cells) | DC50 fold better than 753b (BCL-xL) ([1]; Jurkat cells, 16 h) | Potency for inducing degradation of BCL-xL (comparison) ([2]; 6 h treatment) | Potency for inducing degradation of BCL-2 (comparison) ([3]; 6 h treatment)
1 | Cc1ncsc1-c1ccc(C(C)NC(=O)C2CC(O)CN2C(=O)C(NC(=O)CCCCCCC(=O)N2CCN(CC3(C)CCC(c4ccc(Cl)cc4)=C(CN4CCN(c5ccc(C(=O)NS(=O)(=O)c6ccc(NC(CCN7CCOCC7)CSc7ccccc7)c(S(=O)(=O)C(F)(F)F)c6)cc5)CC4)C3)CC2)C(C)(C)C)cc1 (centres unmarked) [753b] | 3.7 nM | > 480 min | ~ 84 min | > 480 min |  |  |  |  |  | 
2 | Cc1ncsc1-c1ccc([C@H](C)NC(=O)[C@@H]2C[C@@H](O)CN2C(=O)[C@@H](NC(=O)CN2CCN(CC(=O)N3CCN(C[C@]4(C)CCC(c5ccc(Cl)cc5)=C(CN5CCN(c6ccc(C(=O)NS(=O)(=O)c7ccc(N[C@H](CCN8C[C@@H]9C[C@H]8CO9)CSc8ccccc8)c(S(=O)(=O)C(F)(F)F)c7)cc6)CC5)C4)CC3)CC2)C(C)(C)C)cc1 [WH244] | 0.6 nM | ~ 219 min | ~ 45 min | about 250 min | 1 h | 4 h | 24 to 48 h | ~ 6.2 fold | more potent than 753b | more potent than 753b
